Reference: publication PMC6713218, “Hyaluronic acid-functionalized bilosomes for targeted delivery of tripterine to inflamed area with enhancive therapy on arthritis” (Drug Delivery, 2019)

Key:
RAW264.7 cells = assay: Cellular uptake test (intracellular Tri by HPLC); type: cell-based, murine; conditions: for Reduction in cellular uptake of HA@Tri-BLs: inhibitor or competitor added: free HA 25 μM, HUTCH-1 10 μg/mL, hypertonic sucrose 400 mM, chlorpromazine 25 μM, EIPA 50 μM, vs control without inhibitor
Experimental: The cellular uptake of Tri-loaded bilosomes were investigated in RAW264.7 cells, a murine macrophage line. The cells were cultured in a RPMI-1640 medium containing 10% FBS (Gibco, CA, USA) at 37 °C in 5% CO2. When the cells grew to 80 ∼ 90% confluence, they were eligible for the cellular uptake test. Tri solution (dissolve in 75% ethanol), Tri-BLs and HA@Tri-BLs were diluted to 10 μg/mL with the culture medium and introduced into the cell wells for coincubation. To elucidate the uptake mechanism of HA@Tri-BLs, the uptake of HA@Tri-BLs was specially measured in the presence of various cytosis inhibitors or competitor, including hypertonic sucrose (400 mM), chlorpromazine (25 μM), simvastatin (5 μM), genistein (200 μM), free HA (25 μM), HUTCH-1 (10 μg/mL), EIPA (50 μM) and Lantraculin A (2.5 μM) (Deng et al., [2017]). The intracellular drug concentration was determined using HPLC by lysing the cells with RIPA lysis buffer and corrected by the protein content with BCA protein assay kit.

[1] = Plasma pharmacokinetics in arthritic rats; type: in vivo; conditions: Sprague-Dawley, rat, iv, i.v. 10 mg/kg, mean ± SD
Experimental: The pharmacokinetics and tissue distribution of free Tri, Tri-BLs and HA@Tri-BLs were studied in arthritic rats. Sprague–Dawley (SD) rats weighing 250 ± 20 g were used to establish the arthritic model. The rats were acclimatized for 20 days in a standard animal room and provided with food and water ad libitum. On the 21st day, the rats were received injection of Freund’s complete adjuvant (FCA) containing 10 mg/mL of Mycobacterium tuberculosis (Sigma-Aldrich) at the right foot (Jia and He, [2016]). […] The established arthritic rats were intravenously injected with Tri solution (dissolved in 75% ethanol solution and diluted with deionized water), Tri-BLs and HA@Tri-BLs via the jugular vein at a dose of 10 mg/kg. After administration, aliquots of blood (∼250 μL) were continuously sampled from the caudal vein into heparinized tubes at predetermined intervals.
Another three groups of arthritic rats were applied for biodistribution study to analyze the in vivo drug distribution of Tri solution, Tri-BLs and HA@Tri-BLs. At 0.5, 1, 2 and 4 h after injection, […] were sacrificed, and the heart, liver, spleen, lung, and kidney as well as the joint were excised or harvested. The drug in the blood and tissue samples was extracted twice with ethyl acetate from the prepared plasma and tissue homogenates (Zhang et al., [2014]). The extracted drug solution was then condensed and reconstituted in 50 μL of methanol for HPLC analysis with gossypol as an internal standard. The experimental protocols settled were reviewed and approved by the Animal Care and Use Committee of Chengdu University of Traditional Chinese Medicine.

[2] = Intra-articular pharmacokinetics and biodistribution in arthritic rats; type: in vivo, Sprague–Dawley (SD) rats
Water solubility = type: physicochemical

For `CCN(c1nc(N)c(C(=O)NC(=N)N)nc1Cl)C(C)C` [EIPA, ethylisopropyl amiloride], the “Reduction in cellular uptake of HA@Tri-BLs” value (“Reduction in cellular uptake” for short) (RAW264.7 cells) was “inhibited the cellular uptake of HA@Tri-BLs to different extents”.
With `CC1=C(O)C(=O)C=C2C1=CC=C1[C@@]2(C)CC[C@@]2(C)[C@@H]3C[C@](C)(C(=O)O)CC[C@]3(C)CC[C@]12C` [Tri solution, Tripterine] the “Cellular uptake of Tri (intracellular Tri content)” value (RAW264.7 cells; 10 μg/mL, three incubation times) was “minimal uptake level”, the AUC(0-inf) ([1]; n = 6) was 35900 ± 530 ng·h/mL and the half-life ([1]; n = 6) was 6.15 ± 0.22 h. It also gave a clearance ([1]; n = 6, read-out: CL (total drug clearance from plasma) (converted)) of 4.65 mL/min, a Cmax ([1]; n = 6, read-out: Cmax (maximum plasma concentration)) of 22600 ± 710 ng/mL and an MRT ([1]; n = 6, read-out: MRT (mean residence time)) of 7.07 ± 0.767 h. The Vd ([1]; n = 6, read-out: V (apparent volume of distribution)) was 1.97 ± 0.35 L, the Cmax ([2]; Sprague-Dawley, rat, iv, arthritic rats, i.v. 10 mg/kg, joint, mean ± SD, n = 6) was 652 ± 146 ng/mL and the AUC(0-t) ([2]; Sprague-Dawley, rat, iv, arthritic rats, i.v. 10 mg/kg, joint, mean ± SD, n = 6, read-out: AUC0−t in the joint) was 1470 ± 402 ng·h/mL. The AUC(0-inf) ([2]; Sprague-Dawley, rat, iv, arthritic rats, i.v. 10 mg/kg, joint, read-out: AUC0–∞ pertinent to the joints) was 1470 ng·h/mL, the “Biodistribution of Tri in organs” value ([2]; arthritic rats, 0.5, 1, 2 and 4 h after injection) was “high distribution in the organs of heart and kidney besides the plasma” and the Water-solubility (Water solubility) was “extremely poor water-solubility”.
In the case of `OC[C@H]1O[C@@](CO)(O[C@H]2O[C@H](CO)[C@@H](O)[C@H](O)[C@H]2O)[C@@H](O)[C@@H]1O` [hypertonic sucrose, sucrose], the “Reduction in cellular uptake” value (RAW264.7 cells) is reported as “inhibited the cellular uptake of HA@Tri-BLs to different extents”.
In the case of `CN(C)CCCN1c2ccccc2Sc2ccc(Cl)cc21` [chlorpromazine, Chlorpromazine], the “Reduction in cellular uptake” value (RAW264.7 cells) is reported as “inhibited the cellular uptake of HA@Tri-BLs to different extents”.
In the case of hyaluronic acid [free HA], the “Reduction in cellular uptake” value (RAW264.7 cells) is reported as 47.5%.
